Data on one compound can be found in article PMC6468648, “The Flavonoid Metabolite 2,4,6-Trihydroxybenzoic Acid Is a CDK Inhibitor and an Anti-Proliferative Agent: A Potential Role in Cancer Prevention” (Cancers, 2019).

Common to all, as to format: biochemical
The target in assay [1] is T1, CDK4 (Homo sapiens, UniProt P11802).
T1 construct: recombinant CDK4/Cyclin D1 (SignalChem); with Cyclin D1
Kind of assay: in vitro kinase assay, […]-ATP ([…] ATP), retinoblastoma (C-term) substrate, SDS-PAGE autoradiography.

Assay [2] addresses T2, CDK1 (Homo sapiens, UniProt P06493).
T2 construct: recombinant CDK1/Cyclin B1 (SignalChem); with Cyclin B1
Kind of assay: in vitro kinase assay, […]-ATP ([…] ATP), H1 histone substrate, SDS-PAGE autoradiography.

The target in assay [3] is T3, CDK2 (Homo sapiens, UniProt P24941).
T3 construct: recombinant CDK2/Cyclin A2 (SignalChem); with Cyclin A2
Described as above.

T2 sequence (P06493 whole entry): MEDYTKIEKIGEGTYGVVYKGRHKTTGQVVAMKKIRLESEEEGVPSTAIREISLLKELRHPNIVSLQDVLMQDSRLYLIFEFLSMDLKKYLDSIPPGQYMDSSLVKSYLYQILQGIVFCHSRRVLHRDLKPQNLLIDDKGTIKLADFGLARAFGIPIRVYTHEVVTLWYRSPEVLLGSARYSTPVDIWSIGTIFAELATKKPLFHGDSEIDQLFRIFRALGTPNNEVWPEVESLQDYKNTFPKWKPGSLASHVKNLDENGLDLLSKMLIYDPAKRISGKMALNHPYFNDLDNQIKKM
T2 sequence (P14635 whole entry partner): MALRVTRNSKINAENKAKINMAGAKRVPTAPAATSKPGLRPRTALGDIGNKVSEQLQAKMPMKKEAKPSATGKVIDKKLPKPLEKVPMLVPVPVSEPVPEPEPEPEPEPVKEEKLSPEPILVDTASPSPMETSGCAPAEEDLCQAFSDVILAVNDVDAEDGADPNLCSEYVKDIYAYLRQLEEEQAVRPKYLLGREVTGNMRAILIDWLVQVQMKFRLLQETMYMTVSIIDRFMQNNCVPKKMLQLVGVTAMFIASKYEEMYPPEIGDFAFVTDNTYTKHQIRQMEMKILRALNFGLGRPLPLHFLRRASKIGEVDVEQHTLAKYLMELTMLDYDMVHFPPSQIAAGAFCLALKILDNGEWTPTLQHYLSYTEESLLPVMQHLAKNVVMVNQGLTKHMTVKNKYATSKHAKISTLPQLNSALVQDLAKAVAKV
T1 sequence (P11802 2-303): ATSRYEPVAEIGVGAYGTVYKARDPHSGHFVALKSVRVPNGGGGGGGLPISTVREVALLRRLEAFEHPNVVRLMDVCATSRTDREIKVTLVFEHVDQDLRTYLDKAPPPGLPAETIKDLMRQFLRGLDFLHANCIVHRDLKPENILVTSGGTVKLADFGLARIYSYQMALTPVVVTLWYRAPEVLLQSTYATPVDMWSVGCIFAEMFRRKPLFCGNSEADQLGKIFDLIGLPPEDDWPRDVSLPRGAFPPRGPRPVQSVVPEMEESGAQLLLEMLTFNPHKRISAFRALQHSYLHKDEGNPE
T1 sequence (P24385 whole entry partner): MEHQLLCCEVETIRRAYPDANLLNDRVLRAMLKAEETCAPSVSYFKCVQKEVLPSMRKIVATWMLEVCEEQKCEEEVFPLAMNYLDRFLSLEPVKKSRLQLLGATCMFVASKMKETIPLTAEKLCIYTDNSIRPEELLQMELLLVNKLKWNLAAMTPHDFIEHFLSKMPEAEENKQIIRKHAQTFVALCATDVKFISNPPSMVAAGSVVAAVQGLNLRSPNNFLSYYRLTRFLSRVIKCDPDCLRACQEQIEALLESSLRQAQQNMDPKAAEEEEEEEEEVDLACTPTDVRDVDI

`O=C(O)c1c(O)cc(O)cc1O` [2,4,6-THBA, 2,4,6-trihydroxybenzoic acid]: the values for the 50% inhibitory concentration (IC50) in assay [1], in assay [2] and in assay [3] were 403 ± 63 µM, 580 ± 57 µM and 262 ± 29 µM, respectively.
